# Test results as given in patent publication US20070293443A1, “Composition for Accelerating Calcium Absorption” (Good Shusei Co. Ltd, priority 2004, published 2007).
# Key:
# [1] = system: dietary calcium absorption; assay: Dietary calcium absorption accelerating effect, blood calcium level after oral calcium carbonate with test substance (Example 1); format: in vivo; conditions: male ICR mice, oral 5 mmol/kg calcium carbonate alone or with test substance (1.25-10.0 mmol/kg), up to 4 hours after administration
# Excerpt: For the experiment, 11-weeks old male ICR mice were used after overnight fasting. During the test period, the mice were given deionized water only. […] The doses of L-arabonic acid administered in combination were 1.25 mmol/kg (Group II), 2.5 mmol/kg (Group III), 5.0 mmol/kg (Group IV), and 10.0 mmol/kg (Group V), and the doses of D-gluconic acid were 2.5 mmol/kg (Group VI), 5.0 mmol/kg (Group VII), and 10.0 mmol/kg (Group VIII). […] The blood calcium level was quantified by a chelate colorimetric method (ortho-cresolphthalein complexone (OCPC) method). The obtained data were analyzed by a paired t-test, and a risk ratio of 5% or less was considered as significant difference.
# [2] = Neutralization curve on dropwise addition of 0.05 N sodium hydroxide, buffering capacity (Example 9); format: physicochemical; conditions: 50 mL of 0.4% aqueous solution, 0.05 N sodium hydroxide added
# Protocol: A sodium hydroxide solution at a concentration of 0.05 N was added to 50 mL of a 0.4% aqueous solution of the preparation of Example 9, and the changes in pH were obtained as shown in FIG. 3. […] In addition, 0.2% aqueous solutions of the preparation of Example 9, Comparative Example 1 and Comparative Example 2 were tasted. The 0.2% aqueous solution of the preparation of […] (pH 4.95), having the lowest pH among three, had the closest taste to water, no flavor, and thus it was indistinguishable from water. The preparations of Comparative Example 1 (pH 5.60) and Comparative Example 2 (pH 5.02) had clearly bitter tastes, even in small amount.
# In addition, a sodium hydroxide solution at a concentration of 0.05 N was added to 50 mL of a 0.4% aqueous solution of L-arabono-γ-lactone and 50 mL of a 0.4% aqueous solution of D-glucono-δ-lactone, respectively, and the changes in pH were obtained as shown in FIG. 2.
# [3] = system: mice; assay: Single oral administration safety test, LD50; format: in vivo
# Excerpt: As a result of a single oral test using mice, it was confirmed that the LD50 value of L-arabonic acid was about 10 g/kg, and thus L-arabonic acid was a material having high safety.
# While it was discovered in Example 5 that the calcium moiety of calcium L-arabonate used in the invention was extremely readily-absorbable, it was shown in Example 6 that the L-arabonic acid moiety was extremely poorly absorbed in the digestive tract.
# [4] = Blood calcium level after administration of calcium L-arabonate (Example 5); format: in vivo; conditions: male ICR mice, oral calcium L-arabonate 1.25, 2.5, 5.0 mmol/kg or calcium carbonate 5 mmol/kg, up to 4 hours
# Protocol: For the experiment, 11-weeks old male ICR mice were used after overnight fasting. During the test period, the mice were given deionized water only. The mice were divided into four groups (Groups I to IV, 5 animals in each group), and the test substance was orally administered as a solution in deionized water. […] The blood calcium level was quantified by a chelating calorimetric method (ortho-cresolphthalein complexone (OCPC) method). The obtained data were analyzed by a paired t-test, and a risk ratio of 5% or less was considered as significant difference.
# [5] = Kinetics of calcium L-arabonate in the digestive tract of rat (Example 6); format: in vivo
# Protocol: For the experiment, 9 to 12-weeks old male Wistar rats were used after overnight fasting. After orally administering 2.5 mmol/kg of calcium L-arabonate, the animals were entered into a metabolic cage, and were sacrificed after 2 hours, after 6 hours, and after 24 hours, to remove the digestive tracts. The contents in each site of the digestive tract were recovered, respectively, and the amount of unaltered L-arabonic acid was quantified by the HPLC method. During the test period, the animals were given deionized water only.
# [6] = system: experimental osteoporosis induced by calcium-deficient diet; assay: Experimental osteoporosis induced by calcium-deficient diet (Example 7); format: in vivo, mice; conditions: for absorption rate of calcium in the digestive tract, fourth week / absorption rate of calcium in the digestive tract, second week: calcium-deficient diet mice; for Femur Ash content / Femur Ca content / Femur P content / Femur Weight / Tibia Ash content / Tibia Ca content / Tibia P content / Tibia Weight: 4 weeks
# Protocol: (§1) Six-week old female ICR mice were divided into five groups (Groups I to V, 10 animals in each group), and fed calcium-deficient feed (calcium carbonate-free AIN 93M, Oriental Yeast Co., Ltd.) for 4 weeks to induce osteoporosis condition. Calcium L-arabonate was dissolved in water and orally administered daily in a dose of 1.25 mmol/kg (Group II) or 2.5 mmol/kg (Group III). The control group for pathological condition (Group I) was administered with water in the same manner. As a comparative group, a group administered with calcium D-gluconate (dose 2.5 mmol/kg (Group IV)) was provided. A normal control group (Group V) was separately provided and was given the normal feed (AIN 93M, Oriental Yeast Co., Ltd.). After administering the test substance on the second week and fourth week of initiation of the test, the animals were transferred to a metabolic cage, and feces were collected for 24 hours. The amount of calcium and phosphorus excreted in the feces were measured, and the absorption rates of ingested calcium and phosphorous in the digestive tract were determined. After completion of the test period, the animals of the respective groups were sacrificed to remove both femurs and tibiae. The femurs and tibiae were removed muscles etc., then immersed in 70% ethanol overnight, and dried at 60° C. for 24 hours to be used as samples for analysis. The measurement items were dry weight, ash content, calcium content, and phosphorus content. The ash content was measured by an ashing method at 550° C. for 18 hours, the calcium content was measured by an OCPC method (Calcium C-Test Wako, Wako Pure Chemical Industries, Ltd.), and the phosphorus content was measured by a p-methylaminophenol reduction method (Phospho C-Test Wako, Wako Pure Chemical Industries, Ltd.). The obtained data were analyzed by ANOVA and the Dunnett's method, and a risk ratio of 5% or less was considered as significant difference.
# [7] = system: experimental osteoporosis induced by combination of ovary excision and calcium-deficient diet; assay: Experimental osteoporosis due to combination of ovary excision and calcium-deficient diet (Example 8); format: in vivo, mice; conditions: for absorption rate of calcium in the digestive tract, fourth week / absorption rate of calcium in the digestive tract, second week: ovary-excised mice on calcium-deficient diet; for Femur Ash content / Femur Ca content / Femur P content / Femur Weight / Tibia Ash content / Tibia Ca content / Tibia P content / Tibia Weight: 4 weeks
# Protocol: as §1
# Six-weeks old female ICR mice excised their ovaries were divided into 5 groups (Groups I to V, 10 animals in each group), and fed calcium-deficient feed (calcium carbonate-free AIN 93M, Oriental Yeast Co., Ltd.) for 4 weeks to induce osteoporosis condition. Calcium L-arabonate was dissolved in water, and orally administered daily in a dose of 1.25 mmol/kg (Group II) or 2.5 mmol/kg (Group III). The control group for pathological condition (Group I) was administered with water in the same manner. As a comparative group, a group administered with calcium D-gluconate (dose 2.5 mmol/kg (Group IV)) was provided. Also, a group excised ovaries but given with normal feed (AIN 93M, Oriental Yeast Co., Ltd.) (Group V) was separately provided. The measurement of the absorption rate of calcium in the digestive tract, and the analysis of femur and tibia were performed in the same manner as in Example 7.
# [8] = 1.25 and 2.5 mmol/kg, versus pathological control and calcium D-gluconate group
smiles,measurement,setting,value
O=C1O[C@@H](CO)[C@H](O)[C@H]1O [L-arabono-γ-lactone],change in blood calcium level,[1],same effects as those of L-arabonic acid
same,buffering capacity,[2],milder than that of D-glucono-δ-lactone
O=C([O-])[C@@H](O)[C@H](O)[C@H](O)CO.O=C([O-])[C@@H](O)[C@H](O)[C@H](O)CO.[Ca+2] [calcium L-arabonate],LD50,[3],≥ 7400 mg/kg
same,change in blood calcium level,[4],dose-dependent increases in the blood calcium level
same,share of the total amount of administration remained in the cecum and the colon,"[5]; after 24 hours, oral 2.5 mmol/kg calcium L-arabonate",About 23%
same,absorption of the arabonic acid moiety in the small intestine,[5]; after oral administration of the calcium salt,hardly absorbed in the small intestine
same,"Residual ratio of L-arabonic acid after administration, Cecum, After 2 hrs","[5]; oral 2.5 mmol/kg calcium L-arabonate, cecum, 2 hrs",34.4 ± 5.81%
same,"Residual ratio of L-arabonic acid after administration, Cecum, After 6 hrs","[5]; oral 2.5 mmol/kg calcium L-arabonate, cecum, 6 hrs",57.8 ± 2.27%
same,"Residual ratio of L-arabonic acid after administration, Cecum, After 24 hrs","[5]; oral 2.5 mmol/kg calcium L-arabonate, cecum, 24 hrs",19.0 ± 15.67%
same,"Residual ratio of L-arabonic acid after administration, Colon, After 2 hrs","[5]; oral 2.5 mmol/kg calcium L-arabonate, colon, 2 hrs",1.9 ± 0.76%
same,"Residual ratio of L-arabonic acid after administration, Colon, After 6 hrs","[5]; oral 2.5 mmol/kg calcium L-arabonate, colon, 6 hrs",3.9 ± 1.30%
same,"Residual ratio of L-arabonic acid after administration, Colon, After 24 hrs","[5]; oral 2.5 mmol/kg calcium L-arabonate, colon, 24 hrs",2.5 ± 0.95%
same,"Residual ratio of L-arabonic acid after administration, Small intestine, After 2 hrs","[5]; oral 2.5 mmol/kg calcium L-arabonate, small intestine, 2 hrs",22.6 ± 4.85%
same,"Residual ratio of L-arabonic acid after administration, Small intestine, After 6 hrs","[5]; oral 2.5 mmol/kg calcium L-arabonate, small intestine, 6 hrs",2.2 ± 1.08%
same,"Residual ratio of L-arabonic acid after administration, Small intestine, After 24 hrs","[5]; oral 2.5 mmol/kg calcium L-arabonate, small intestine, 24 hrs",0.2 ± 0.08%
same,"Residual ratio of L-arabonic acid after administration, Stomach, After 2 hrs","[5]; oral 2.5 mmol/kg calcium L-arabonate, stomach, 2 hrs",3.30 ± 1.34%
same,"Residual ratio of L-arabonic acid after administration, Stomach, After 6 hrs","[5]; oral 2.5 mmol/kg calcium L-arabonate, stomach, 6 hrs",0.1 ± 0.06%
same,"Residual ratio of L-arabonic acid after administration, Stomach, After 24 hrs","[5]; oral 2.5 mmol/kg calcium L-arabonate, stomach, 24 hrs",0%
same,absorption rates of phosphorus in the digestive tract,"[6]; 1.25 and 2.5 mmol/kg, compared with calcium D-gluconate group",tendency for higher absorption rates of phosphorus compared with the comparative group
same,"amelioration of weight, ash, calcium and phosphorus content of femur and tibia",[6]; [8],ameliorated in all of the above indices in dose-dependent manner
same,"absorption rate of calcium in the digestive tract, fourth week",[6]; dose 1.25 mmol/kg oral daily,99.3%
same,"absorption rate of calcium in the digestive tract, second week",[6]; dose 1.25 mmol/kg oral daily,93.1%
same,"absorption rate of calcium in the digestive tract, fourth week",[6]; dose 2.5 mmol/kg oral daily,80.1%
same,"absorption rate of calcium in the digestive tract, second week",[6]; dose 2.5 mmol/kg oral daily,87.9%
same,Femur Ash content,[6]; dose 1.25 mmol/kg oral daily,24 ± 0.7 mg
same,Femur Ca content,[6]; dose 1.25 mmol/kg oral daily,8.8 ± 0.22 mg
same,Femur P content,[6]; dose 1.25 mmol/kg oral daily,4.5 ± 0.09 mg
same,Femur Weight,[6]; dose 1.25 mmol/kg oral daily,44 ± 1.0 mg
same,Femur Ash content,[6]; dose 2.5 mmol/kg oral daily,27 ± 0.5 mg
same,Femur Ca content,[6]; dose 2.5 mmol/kg oral daily,9.5 ± 0.13 mg
same,Femur P content,[6]; dose 2.5 mmol/kg oral daily,5.1 ± 0.05 mg
same,Femur Weight,[6]; dose 2.5 mmol/kg oral daily,49 ± 1.1 mg
same,Tibia Ash content,[6]; dose 1.25 mmol/kg oral daily,23 ± 0.8 mg
same,Tibia Ca content,[6]; dose 1.25 mmol/kg oral daily,8.1 ± 0.28 mg
same,Tibia P content,[6]; dose 1.25 mmol/kg oral daily,4.2 ± 0.14 mg
same,Tibia Weight,[6]; dose 1.25 mmol/kg oral daily,43 ± 1.6 mg
same,Tibia Ash content,[6]; dose 2.5 mmol/kg oral daily,24 ± 0.5 mg
same,Tibia Ca content,[6]; dose 2.5 mmol/kg oral daily,9.1 ± 0.22 mg
same,Tibia P content,[6]; dose 2.5 mmol/kg oral daily,4.6 ± 0.05 mg
same,Tibia Weight,[6]; dose 2.5 mmol/kg oral daily,46 ± 1.2 mg
same,"amelioration of weight, ash, calcium and phosphorus content of femur and tibia",[7]; [8],ameliorated in all of the indices in dose-dependent manner
same,"absorption rate of calcium in the digestive tract, fourth week",[7]; dose 1.25 mmol/kg oral daily,81.8%
same,"absorption rate of calcium in the digestive tract, second week",[7]; dose 1.25 mmol/kg oral daily,85.7%
same,"absorption rate of calcium in the digestive tract, fourth week",[7]; dose 2.5 mmol/kg oral daily,57.7%
same,"absorption rate of calcium in the digestive tract, second week",[7]; dose 2.5 mmol/kg oral daily,74.4%
same,Femur Ash content,[7]; dose 1.25 mmol/kg oral daily,25 ± 0.4 mg
same,Femur Ca content,[7]; dose 1.25 mmol/kg oral daily,8.8 ± 0.18 mg
same,Femur P content,[7]; dose 1.25 mmol/kg oral daily,4.7 ± 0.07 mg
same,Femur Weight,[7]; dose 1.25 mmol/kg oral daily,45 ± 0.9 mg
same,Femur Ash content,[7]; dose 2.5 mmol/kg oral daily,28 ± 0.8 mg
same,Femur Ca content,[7]; dose 2.5 mmol/kg oral daily,10.2 ± 0.24 mg
same,Femur P content,[7]; dose 2.5 mmol/kg oral daily,5.3 ± 0.11 mg
same,Femur Weight,[7]; dose 2.5 mmol/kg oral daily,50 ± 0.9 mg
same,Tibia Ash content,[7]; dose 1.25 mmol/kg oral daily,22 ± 0.3 mg
same,Tibia Ca content,[7]; dose 1.25 mmol/kg oral daily,8.2 ± 0.15 mg
same,Tibia P content,[7]; dose 1.25 mmol/kg oral daily,4.2 ± 0.05 mg
same,Tibia Weight,[7]; dose 1.25 mmol/kg oral daily,42 ± 0.8 mg
same,Tibia Ash content,[7]; dose 2.5 mmol/kg oral daily,25 ± 0.5 mg
same,Tibia Ca content,[7]; dose 2.5 mmol/kg oral daily,9.3 ± 0.23 mg
same,Tibia P content,[7]; dose 2.5 mmol/kg oral daily,4.7 ± 0.11 mg
same,Tibia Weight,[7]; dose 2.5 mmol/kg oral daily,46 ± 1.0 mg
